Results: patent publication US20080287398A1, “COLD MENTHOL RECEPTOR-1 ANTAGONISTS” (priority 2007, published 2008)
Where “and” joins values, the source holds several entries; their conditions need not be identical. Identical values can stand only once. Like-named read-outs stand apart in the source and are kept apart here.

Target: T1, canine TRPM8 (Canis lupus familiaris, UniProt Q1A7N1)
T1 construct: expressed in transfected cells
Experiment: In vitro canine TRPM8 functional assay (Ca2+-sensitive dye, FLIPR/FDSS, icilin activation)
Type: cell-based
Conditions: HEK293 cells expressing canine TRPM8, icilin activation; for % I (1 μM): 1 μM compound; for IC50: eight-point dose-response; for % I (0.5 μM): 0.5 μM compound
Outline: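 Icilin challenge (final concentration producing ~80% of maximal response) followed a 5 min compound exposure in canine TRPM8-HEK293 cells dye-loaded with Calcium 3. Intracellular Ca2+ was read on FLIPR/FDSS. EC50 and IC50 values came from nonlinear sigmoidal dose-response fits of basal-subtracted, percent-of-maximum data averaged over quadruplicates.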

[1] = HEK293, 0.5 μM compound, read-out: % I (0.5 μM)
[2] = HEK293, read-out: % I (0.5 μM), 0.5 μM compound

T1 sequence (Q1A7N1 1-1104): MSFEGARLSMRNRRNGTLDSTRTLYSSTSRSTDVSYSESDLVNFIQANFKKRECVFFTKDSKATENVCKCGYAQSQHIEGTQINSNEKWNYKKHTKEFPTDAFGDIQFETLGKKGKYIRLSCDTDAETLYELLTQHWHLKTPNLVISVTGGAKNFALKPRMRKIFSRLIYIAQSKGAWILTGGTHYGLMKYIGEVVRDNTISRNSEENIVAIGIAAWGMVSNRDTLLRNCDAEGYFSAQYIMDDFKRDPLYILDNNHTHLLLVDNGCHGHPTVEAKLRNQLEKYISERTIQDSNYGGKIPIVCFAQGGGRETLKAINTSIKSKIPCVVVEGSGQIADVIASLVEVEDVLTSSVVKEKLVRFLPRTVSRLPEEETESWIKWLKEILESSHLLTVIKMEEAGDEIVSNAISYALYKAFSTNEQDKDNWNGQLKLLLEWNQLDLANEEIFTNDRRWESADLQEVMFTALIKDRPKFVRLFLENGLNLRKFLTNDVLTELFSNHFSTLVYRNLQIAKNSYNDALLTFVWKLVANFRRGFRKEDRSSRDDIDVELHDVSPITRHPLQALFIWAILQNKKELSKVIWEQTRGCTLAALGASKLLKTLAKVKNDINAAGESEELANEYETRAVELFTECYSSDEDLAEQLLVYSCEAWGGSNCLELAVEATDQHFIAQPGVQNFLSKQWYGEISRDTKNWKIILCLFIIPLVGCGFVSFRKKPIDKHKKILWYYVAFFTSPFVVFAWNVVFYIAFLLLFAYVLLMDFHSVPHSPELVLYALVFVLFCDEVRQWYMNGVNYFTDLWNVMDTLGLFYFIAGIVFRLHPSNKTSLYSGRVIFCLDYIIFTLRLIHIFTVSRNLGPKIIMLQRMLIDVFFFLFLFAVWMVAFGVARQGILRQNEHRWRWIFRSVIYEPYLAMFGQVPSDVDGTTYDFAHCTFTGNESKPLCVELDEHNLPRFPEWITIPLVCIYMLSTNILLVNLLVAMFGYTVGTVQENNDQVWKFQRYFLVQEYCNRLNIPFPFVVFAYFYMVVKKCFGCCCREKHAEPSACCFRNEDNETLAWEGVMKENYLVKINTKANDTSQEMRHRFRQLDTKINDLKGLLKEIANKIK

| SMILES | IC50 (read-out: IC50) | % I (0.5 μM) | further results |
| --- | --- | --- | --- |
| CC(C)OP(=O)(OC(C)C)C(Cc1ccccc1F)c1sc2cc(Br)ccc2c1Br (centres unmarked) [Cpd 199] | – | – | % I (1 μM): 81% |
| CC(C)OP(=O)(OC(C)C)C(Cc1ccc(F)cc1)c1sc2cc(Br)ccc2c1Br (centres unmarked) [Cpd 200] | – | – | % I (1 μM): 81% |
| COP(=O)(OC)C(Cc1ccc(F)c(F)c1)c1sc2ccccc2c1Br (centres unmarked) [Cpd 201] | 0.133 µM | – | % I (1 μM): 100% |
| Cc1c(C(Cc2ccc(F)c(F)c2)P(=O)(OC(C)C)OC(C)C)oc2cccc(F)c12 (centres unmarked) [Cpd 202] | 0.053 µM | – | % I (1 μM): 103% |
| CCC(C)P(=O)(C(C)CC)C(Cc1ccc(F)c(F)c1)c1sc2ccccc2c1Br (centres unmarked) [Cpd 203] | 0.457 µM | – | % I (1 μM): 96% |
| CCCCOP(=O)(OCCCC)C(Cc1ccc(F)c(F)c1)c1sc2ccccc2c1Br (centres unmarked) [Cpd 209, [1-(3-Bromo-benzo[b]thiophen-2-yl)-2-(3,4-difluoro-phenyl)-ethyl]-phosphonic acid dibutyl ester] | 0.071 µM | – | inhibition at 0.5 µM [1]: 104% |
| COC(=O)COP(=O)(OCC(=O)OC)C(Cc1ccc(F)c(F)c1)c1sc2ccccc2c1Br (centres unmarked) [Cpd 212, {[1-(3-Bromo-benzo[b]thiophen-2-yl)-2-(3,4-difluoro-phenyl)-ethyl]-methoxycarbonylmethoxy-phosphinoyloxy}-acetic acid methyl ester] | 0.119 µM | – | inhibition at 0.5 µM [1]: 102% |
| CCOP(=O)(OCC)C(Cc1ccc(F)c(F)c1)c1sc2ccccc2c1-c1ccccc1 (centres unmarked) [Cpd 214, [2-(3,4-Difluoro-phenyl)-1-(3-phenyl-benzo[b]thiophen-2-yl)-ethyl]-phosphonic acid diethyl ester] | – | – | inhibition at 0.5 µM [2]: 101%; IC50 (IC50 (μM)): 0.08 µM |
| CCOP(=O)(OCC)C(Cc1ccc(F)c(F)c1)c1sc2ccccc2c1-c1cccc(F)c1 (centres unmarked) [Cpd 217, {2-(3,4-Difluoro-phenyl)-1-[3-(3-fluoro-phenyl)-benzo[b]thiophen-2-yl)-ethyl]-phosphonic acid diethyl ester] | – | – | inhibition at 0.5 µM [2]: 100%; IC50 (IC50 (μM)): 0.142 µM |
| CC(C)OP(=O)(OC(C)C)C(Cc1ccc(F)c(F)c1)c1sc2cccc(F)c2c1Br (centres unmarked) [Cpd 221, [1-(3-Bromo-4-fluoro-benzo[b]thiophen-2-yl)-2-(3,4-difluoro-phenyl)-ethyl]-phosphonic acid diisopropyl ester] | 0.032 µM | – | inhibition at 0.5 µM [1]: 102% |
| CCOP(=O)(OCC)C(Cc1ccc(F)c(O)c1)c1sc2ccccc2c1Br (centres unmarked) [Cpd 225, [1-(3-Bromo-benzo[b]thiophen-2-yl)-2-(4-fluoro-3-hydroxy-phenyl)-ethyl]-phosphonic acid diethyl ester] | – | – | inhibition at 0.5 µM [2]: 103%; IC50 (IC50 (μM)): 0.027 µM |
| CC(C)OP(=O)(OC(C)C)[C@H](Cc1ccc(F)c(C(F)(F)F)c1)c1sc2ccccc2c1Br [Cpd 243, (R)-[1-(3-Bromo-benzo[b]thiophen-2-yl)-2-(4-fluoro-3-trifluoromethyl-phenyl)-ethyl]-phosphonic acid diisopropyl ester] | 0.089 µM | – | inhibition at 0.5 µM [1]: 80% |
| CC(C)OP(=O)(OC(C)C)C(Cc1ccc(F)cc1C(F)(F)F)c1sc2ccccc2c1Br (centres unmarked) [Cpd 249] | 0.054 µM | 103% | – |
| CC(C)OP(=O)(OC(C)C)C(Cc1cccc(SC(F)(F)F)c1)c1sc2ccccc2c1Br (centres unmarked) [Cpd 250] | 0.048 µM | 103% | – |
| CSc1ccc(CC(c2sc3ccccc3c2Br)P(=O)(OC(C)C)OC(C)C)cc1 (centres unmarked) [Cpd 251] | 0.045 µM | 103% | – |
| CC(C)OP(=O)(OC(C)C)C(Cc1ccc(S(C)(=O)=O)cc1)c1sc2ccccc2c1Br (centres unmarked) [Cpd 252] | – | 44% | – |
| CC(C)OP(=O)(OC(C)C)C(Cc1ccc(F)c(Cl)c1)c1sc2ccccc2c1Cl (centres unmarked) [Cpd 253] | 0.034 µM | 103% | – |
| CC(C)OP(=O)(OC(C)C)C(Cc1ccc(F)cc1C(F)(F)F)c1sc2ccccc2c1Cl (centres unmarked) [Cpd 254] | 0.079 µM | 103% | – |
| CC(C)OP(=O)(OC(C)C)C(Cc1cccc(SC(F)(F)F)c1)c1sc2ccccc2c1Cl (centres unmarked) [Cpd 255] | 0.058 µM | 103% | – |
| CSc1ccc(CC(c2sc3ccccc3c2Cl)P(=O)(OC(C)C)OC(C)C)cc1 (centres unmarked) [Cpd 256] | 0.056 µM | 103% | – |
| CCOP(=O)(OCC)C(Cc1ccc(Cl)cc1)c1sc2ccccc2c1Br (centres unmarked) [Cpd 257] | 0.026 µM | 101% | – |
| CCOP(=O)(OCC)C(Cc1ccc(Cl)c(F)c1)c1sc2ccccc2c1Br (centres unmarked) [Cpd 258] | 0.045 µM | 102% | – |
| CCOP(=O)(OCC)C(Cc1cc(F)cc(Cl)c1)c1sc2ccccc2c1Br (centres unmarked) [Cpd 259] | 0.023 µM | 103% | – |
| CCOP(=O)(OCC)C(Cc1ccccc1C(F)(F)F)c1sc2ccccc2c1Br (centres unmarked) [Cpd 260] | 0.077 µM and 0.056 µM | 103% | – |
| CCOP(=O)(OCC)C(Cc1cc(C(F)(F)F)cc(C(F)(F)F)c1)c1sc2ccccc2c1Br (centres unmarked) [Cpd 261] | 0.073 µM and 0.077 µM | 102% | – |

| SMILES | IC50 (read-out: IC50) | % I (0.5 μM) | further results |
| --- | --- | --- | --- |
| CCOP(=O)(OCC)C(Cc1ccc(S(=O)(=O)C(F)(F)F)cc1)c1sc2ccccc2c1Br (centres unmarked) [Cpd 262] | 0.066 µM | 103% | – |
| CC(C)OP(=O)(OC(C)C)C(Cc1ccc(S(=O)(=O)C(F)(F)F)cc1)c1sc2ccccc2c1Br (centres unmarked) [Cpd 263] | 0.022 µM | 103% | – |
| CC(C)OP(=O)(OC(C)C)C(Cc1ccc(S(=O)(=O)C(F)(F)F)cc1)c1sc2ccccc2c1Cl (centres unmarked) [Cpd 264] | 0.029 µM | 103% | – |
| CCOP(=O)(OCC)C(Cc1ccc(F)c(F)c1)c1cc2ccccc2o1 (centres unmarked) [Cpd 265] | 0.409 µM | – | % I (1 μM): 95% |
| CCOP(=O)(OCC)C(Cc1ccc(F)c(F)c1)c1oc2ccccc2c1Br (centres unmarked) [Cpd 266] | 0.051 µM | – | % I (1 μM): 103% |
| CC(C)OP(=O)(OC(C)C)C(Cc1cccc(Cl)c1F)c1sc2ccccc2c1Br (centres unmarked) [Cpd 267] | 0.047 µM and 0.029 µM | – | % I (1 μM): 101% and 102% |
| CC(C)OP(=O)(OC(C)C)C(Cc1cccc(C(F)(F)F)c1Cl)c1sc2ccccc2c1Br (centres unmarked) [Cpd 268] | 0.034 µM | 104% | – |
| CCOP(=O)(OCC)C(Cc1ccccc1Cl)c1sc2ccccc2c1Cl (centres unmarked) [Cpd 269] | 0.162 µM | 102% | – |
| CCOP(=O)(OCC)C(Cc1cccc(OC(F)(F)F)c1)c1sc2ccccc2c1Cl (centres unmarked) [Cpd 270] | 0.202 µM | 102% | – |
| CCOP(=O)(OCC)C(Cc1ccc(OC(F)(F)F)c(Cl)c1)c1sc2ccccc2c1Cl (centres unmarked) [Cpd 271] | 0.104 µM | 103% | – |
| CCOP(=O)(OCC)C(Cc1cccc(Cl)c1F)c1sc2ccccc2c1Cl (centres unmarked) [Cpd 272] | 0.114 µM | 103% | – |
| CCOP(=O)(OCC)C(Cc1ccc(C(F)(F)F)c(F)c1)c1sc2ccccc2c1Cl (centres unmarked) [Cpd 273] | 0.116 µM | 103% | – |
| CCOP(=O)(OCC)C(Cc1cc(C(F)(F)F)ccc1Cl)c1sc2ccccc2c1Cl (centres unmarked) [Cpd 274] | 0.301 µM | 95% | – |
| CCOP(=O)(OCC)C(Cc1cccc(Br)c1)c1sc2ccccc2c1Cl (centres unmarked) [Cpd 275] | 0.104 µM | 103% | – |
| CCOP(=O)(OCC)C(Cc1cc(F)cc(Cl)c1)c1sc2ccccc2c1Cl (centres unmarked) [Cpd 276] | 0.114 µM | 103% | – |
| CCOP(=O)(OCC)C(Cc1ccc(OC(F)(F)F)cc1)c1sc2ccccc2c1Cl (centres unmarked) [Cpd 277] | 0.116 µM | 103% | – |
| CCOP(=O)(OCC)C(Cc1cc(F)cc(C(F)(F)F)c1)c1sc2ccccc2c1Cl (centres unmarked) [Cpd 278] | 0.159 µM | 103% | – |
| CCOP(=O)(OCC)C(Cc1cccc(C#N)c1)c1sc2ccccc2c1Br (centres unmarked) [Cpd 309] | 0.088 µM | 103% | – |
| CCOP(=O)(OCC)C(Cc1cccc(-n2cccc2)c1)c1sc2ccccc2c1Br (centres unmarked) [Cpd 310] | 0.042 µM | 102% | – |
| CCOP(=O)(OCC)C(Cc1ccc(OC(F)F)cc1)c1sc2ccccc2c1Br (centres unmarked) [Cpd 311] | 0.053 µM | 102% | – |
| CCOP(=O)(OCC)C(Cc1ccc(C#N)cc1)c1sc2ccccc2c1Br (centres unmarked) [Cpd 312] | 0.089 µM | 102% | – |
| CCOP(=O)(OCC)C(Cc1cccc(C(=O)OC)c1)c1sc2ccccc2c1Br (centres unmarked) [Cpd 313] | 0.083 µM | 102% | – |
| CCOP(=O)(OCC)C(Cc1cccc(OC)c1)c1sc2ccccc2c1Br (centres unmarked) [Cpd 314] | 0.029 µM and 0.021 µM | 103% and 104% | – |
| CCOP(=O)(OCC)C(Cc1cccc([N+](=O)[O-])c1)c1sc2ccccc2c1Br (centres unmarked) [Cpd 315] | – | – | inhibition at 0.5 µM [2]: 103%; IC50 (IC50 (μM)): 0.041 µM |
